{"source": "paper PMC8449129", "about": "“Single tracer-based protocol for broad-spectrum kinase profiling in live cells with NanoBRET” (STAR Protocols, 2021)", "experiment_in_all_cases": "cell-based", "set-up_in_all_cases": "NanoBRET live-cell target engagement; % occupancy from displacement of tracer K10 on NanoLuc-kinase fusions, mean n=3", "conditions_in_all_cases": "HEK293, read-out: % inhibition", "key": {"AAK1": {"biological_target": "AAK1 (Homo sapiens, UniProt Q2M2I8)", "procedure,_shortened": "(§1)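 Live-cell NanoBRET target engagement: cells expressing kinase–NanoLuc fusion with tracer treated with compound 2 h at 37 °C, 5% CO2. BRET read from donor (450 nm) and acceptor (610/630 nm) emission with 20 μM extracellular NanoLuc inhibitor; % occupancy calculated relative to tracer+DMSO and zero-BRET controls.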"}, "AKT2": {"biological_target": "AKT2 (Homo sapiens, UniProt P31751)", "sequence (P31751 whole entry)": "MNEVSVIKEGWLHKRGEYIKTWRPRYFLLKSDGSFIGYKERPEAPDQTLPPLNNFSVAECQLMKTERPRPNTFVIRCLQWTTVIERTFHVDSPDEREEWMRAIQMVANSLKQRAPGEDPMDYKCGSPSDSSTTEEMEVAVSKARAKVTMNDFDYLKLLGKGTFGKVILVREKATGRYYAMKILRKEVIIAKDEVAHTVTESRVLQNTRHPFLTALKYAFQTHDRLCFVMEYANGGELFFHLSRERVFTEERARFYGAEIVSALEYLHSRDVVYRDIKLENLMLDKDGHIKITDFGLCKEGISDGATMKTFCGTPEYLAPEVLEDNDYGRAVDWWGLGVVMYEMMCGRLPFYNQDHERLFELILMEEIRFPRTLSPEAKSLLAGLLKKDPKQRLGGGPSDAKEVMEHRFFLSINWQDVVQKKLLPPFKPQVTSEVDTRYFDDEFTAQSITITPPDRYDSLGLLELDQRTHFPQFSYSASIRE", "procedure,_shortened": "as §1"}, "CDK10": {"biological_target": "CDK10 (Homo sapiens, UniProt Q15131)", "procedure,_shortened": "as §1"}, "CDK5": {"biological_target": "CDK5 (Homo sapiens, UniProt Q00535)", "sequence (Q00535 whole entry)": "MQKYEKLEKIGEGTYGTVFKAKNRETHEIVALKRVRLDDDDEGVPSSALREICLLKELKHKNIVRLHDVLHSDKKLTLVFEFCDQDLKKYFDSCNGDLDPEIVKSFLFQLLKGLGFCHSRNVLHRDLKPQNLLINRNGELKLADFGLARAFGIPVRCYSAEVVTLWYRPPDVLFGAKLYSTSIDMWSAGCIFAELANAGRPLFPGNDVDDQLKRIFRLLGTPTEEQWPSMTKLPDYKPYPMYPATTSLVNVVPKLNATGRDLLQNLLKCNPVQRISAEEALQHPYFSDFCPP", "procedure,_shortened": "as §1"}, "CSNK1A1L": {"biological_target": "CSNK1A1L (Homo sapiens, UniProt Q8N752)", "procedure,_shortened": "as §1"}, "FGFR3": {"biological_target": "FGFR3 (Homo sapiens, UniProt P22607)", "procedure,_shortened": "as §1"}, "ITK": {"biological_target": "ITK (Homo sapiens, UniProt Q08881)", "procedure,_shortened": "as §1"}, "MAP3K10": {"biological_target": "MAP3K10 (Homo sapiens, UniProt Q02779)", "sequence (Q02779 whole entry)": "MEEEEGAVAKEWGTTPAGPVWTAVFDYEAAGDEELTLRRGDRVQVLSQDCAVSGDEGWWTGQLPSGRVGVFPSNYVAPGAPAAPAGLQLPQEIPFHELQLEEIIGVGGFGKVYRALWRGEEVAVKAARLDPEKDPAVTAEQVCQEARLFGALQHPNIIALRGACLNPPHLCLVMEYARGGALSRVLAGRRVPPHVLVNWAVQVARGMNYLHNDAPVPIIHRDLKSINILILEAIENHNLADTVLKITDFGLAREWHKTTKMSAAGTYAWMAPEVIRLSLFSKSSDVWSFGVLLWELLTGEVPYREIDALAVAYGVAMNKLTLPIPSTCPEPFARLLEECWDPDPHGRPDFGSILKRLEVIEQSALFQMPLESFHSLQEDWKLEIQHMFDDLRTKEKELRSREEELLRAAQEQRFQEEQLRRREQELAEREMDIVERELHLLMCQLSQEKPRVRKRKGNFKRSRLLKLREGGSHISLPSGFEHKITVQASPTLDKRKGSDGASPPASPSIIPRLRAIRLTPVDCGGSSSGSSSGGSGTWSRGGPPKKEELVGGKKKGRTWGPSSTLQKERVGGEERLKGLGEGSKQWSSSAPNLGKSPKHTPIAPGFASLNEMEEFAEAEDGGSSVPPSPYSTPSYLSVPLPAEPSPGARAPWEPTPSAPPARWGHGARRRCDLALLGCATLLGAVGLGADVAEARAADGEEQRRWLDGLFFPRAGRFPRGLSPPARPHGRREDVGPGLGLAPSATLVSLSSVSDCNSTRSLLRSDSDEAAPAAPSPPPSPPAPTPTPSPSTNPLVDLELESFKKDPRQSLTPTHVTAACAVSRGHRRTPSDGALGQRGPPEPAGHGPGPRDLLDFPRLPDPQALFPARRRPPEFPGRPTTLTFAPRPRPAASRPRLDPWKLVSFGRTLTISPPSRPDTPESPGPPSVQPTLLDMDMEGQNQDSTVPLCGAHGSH", "procedure,_shortened": "as §1"}, "MAP3K4": {"biological_target": "MAP3K4 (Homo sapiens, UniProt Q9Y6R4)", "procedure,_shortened": "as §1"}, "MAP3K9": {"biological_target": "MAP3K9 (Homo sapiens, UniProt P80192)", "procedure,_shortened": "as §1"}, "MARK2": {"biological_target": "MARK2 (Homo sapiens, UniProt Q7KZI7)", "procedure,_shortened": "as §1"}, "MAST4": {"biological_target": "MAST4 (Homo sapiens, UniProt O15021)", "procedure,_shortened": "as §1"}, "MKNK2": {"biological_target": "MKNK2 (Homo sapiens, UniProt Q9HBH9)", "sequence (Q9HBH9 whole entry)": "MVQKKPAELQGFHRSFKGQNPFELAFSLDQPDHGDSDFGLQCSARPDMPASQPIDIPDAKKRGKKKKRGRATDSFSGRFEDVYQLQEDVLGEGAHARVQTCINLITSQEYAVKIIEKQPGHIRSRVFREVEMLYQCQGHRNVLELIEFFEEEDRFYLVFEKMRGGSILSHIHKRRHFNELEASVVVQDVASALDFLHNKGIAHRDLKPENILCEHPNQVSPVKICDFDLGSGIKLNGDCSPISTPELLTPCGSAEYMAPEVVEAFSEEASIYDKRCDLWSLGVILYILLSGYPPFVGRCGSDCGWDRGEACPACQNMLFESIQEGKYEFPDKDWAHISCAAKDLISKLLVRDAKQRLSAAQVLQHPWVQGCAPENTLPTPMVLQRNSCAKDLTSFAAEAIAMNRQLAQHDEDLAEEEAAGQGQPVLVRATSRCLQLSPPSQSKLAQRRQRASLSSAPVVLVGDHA", "procedure,_shortened": "as §1"}, "MYLK2": {"biological_target": "MYLK2 (Homo sapiens, UniProt Q9H1R3)", "sequence (Q9H1R3 whole entry)": "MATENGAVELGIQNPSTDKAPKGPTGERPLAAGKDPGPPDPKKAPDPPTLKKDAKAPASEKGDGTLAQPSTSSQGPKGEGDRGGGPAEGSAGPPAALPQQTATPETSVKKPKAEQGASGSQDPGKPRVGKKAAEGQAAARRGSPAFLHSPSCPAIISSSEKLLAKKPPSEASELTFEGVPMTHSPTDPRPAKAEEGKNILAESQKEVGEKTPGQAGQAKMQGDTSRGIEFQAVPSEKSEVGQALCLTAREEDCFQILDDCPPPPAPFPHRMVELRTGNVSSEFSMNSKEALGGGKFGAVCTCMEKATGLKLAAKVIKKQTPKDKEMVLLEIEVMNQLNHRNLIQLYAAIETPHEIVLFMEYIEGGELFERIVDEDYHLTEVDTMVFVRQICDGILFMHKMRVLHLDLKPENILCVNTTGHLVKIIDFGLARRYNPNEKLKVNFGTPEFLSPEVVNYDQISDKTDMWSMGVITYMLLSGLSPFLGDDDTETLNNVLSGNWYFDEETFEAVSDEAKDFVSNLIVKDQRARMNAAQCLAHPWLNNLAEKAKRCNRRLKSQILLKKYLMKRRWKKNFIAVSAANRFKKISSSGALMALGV", "procedure,_shortened": "as §1"}, "PHKG1": {"biological_target": "PHKG1 (Homo sapiens, UniProt Q16816)", "sequence (Q16816 whole entry)": "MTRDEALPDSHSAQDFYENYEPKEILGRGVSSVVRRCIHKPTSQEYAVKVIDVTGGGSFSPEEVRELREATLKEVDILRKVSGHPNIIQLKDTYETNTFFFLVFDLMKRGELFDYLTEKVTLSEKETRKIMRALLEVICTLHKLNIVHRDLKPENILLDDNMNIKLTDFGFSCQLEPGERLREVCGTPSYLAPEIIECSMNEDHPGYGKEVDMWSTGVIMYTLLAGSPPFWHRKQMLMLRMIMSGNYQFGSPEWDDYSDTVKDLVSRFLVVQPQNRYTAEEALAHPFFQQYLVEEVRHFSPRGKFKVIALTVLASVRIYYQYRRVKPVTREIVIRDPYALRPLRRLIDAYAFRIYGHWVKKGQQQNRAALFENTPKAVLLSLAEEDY", "procedure,_shortened": "as §1"}, "STK3": {"biological_target": "STK3 (Homo sapiens, UniProt Q13188)", "sequence (Q13188 whole entry)": "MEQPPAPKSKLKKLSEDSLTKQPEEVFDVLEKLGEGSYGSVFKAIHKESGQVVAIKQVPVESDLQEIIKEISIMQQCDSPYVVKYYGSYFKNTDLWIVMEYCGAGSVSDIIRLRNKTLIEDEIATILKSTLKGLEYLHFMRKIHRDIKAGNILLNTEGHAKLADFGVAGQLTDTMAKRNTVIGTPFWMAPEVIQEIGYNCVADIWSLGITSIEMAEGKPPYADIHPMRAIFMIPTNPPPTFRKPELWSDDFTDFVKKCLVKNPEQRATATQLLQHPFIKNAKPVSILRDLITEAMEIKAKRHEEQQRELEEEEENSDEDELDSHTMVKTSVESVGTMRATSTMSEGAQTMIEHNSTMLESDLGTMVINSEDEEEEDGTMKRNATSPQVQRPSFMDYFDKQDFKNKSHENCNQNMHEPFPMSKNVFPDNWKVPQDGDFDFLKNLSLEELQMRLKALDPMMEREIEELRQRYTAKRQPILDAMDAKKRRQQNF", "procedure,_shortened": "as §1"}, "TLK1": {"biological_target": "TLK1 (Homo sapiens, UniProt Q9UKI8)", "procedure,_shortened": "as §1"}, "ULK1": {"biological_target": "ULK1 (Homo sapiens, UniProt O75385)", "sequence (O75385 whole entry)": "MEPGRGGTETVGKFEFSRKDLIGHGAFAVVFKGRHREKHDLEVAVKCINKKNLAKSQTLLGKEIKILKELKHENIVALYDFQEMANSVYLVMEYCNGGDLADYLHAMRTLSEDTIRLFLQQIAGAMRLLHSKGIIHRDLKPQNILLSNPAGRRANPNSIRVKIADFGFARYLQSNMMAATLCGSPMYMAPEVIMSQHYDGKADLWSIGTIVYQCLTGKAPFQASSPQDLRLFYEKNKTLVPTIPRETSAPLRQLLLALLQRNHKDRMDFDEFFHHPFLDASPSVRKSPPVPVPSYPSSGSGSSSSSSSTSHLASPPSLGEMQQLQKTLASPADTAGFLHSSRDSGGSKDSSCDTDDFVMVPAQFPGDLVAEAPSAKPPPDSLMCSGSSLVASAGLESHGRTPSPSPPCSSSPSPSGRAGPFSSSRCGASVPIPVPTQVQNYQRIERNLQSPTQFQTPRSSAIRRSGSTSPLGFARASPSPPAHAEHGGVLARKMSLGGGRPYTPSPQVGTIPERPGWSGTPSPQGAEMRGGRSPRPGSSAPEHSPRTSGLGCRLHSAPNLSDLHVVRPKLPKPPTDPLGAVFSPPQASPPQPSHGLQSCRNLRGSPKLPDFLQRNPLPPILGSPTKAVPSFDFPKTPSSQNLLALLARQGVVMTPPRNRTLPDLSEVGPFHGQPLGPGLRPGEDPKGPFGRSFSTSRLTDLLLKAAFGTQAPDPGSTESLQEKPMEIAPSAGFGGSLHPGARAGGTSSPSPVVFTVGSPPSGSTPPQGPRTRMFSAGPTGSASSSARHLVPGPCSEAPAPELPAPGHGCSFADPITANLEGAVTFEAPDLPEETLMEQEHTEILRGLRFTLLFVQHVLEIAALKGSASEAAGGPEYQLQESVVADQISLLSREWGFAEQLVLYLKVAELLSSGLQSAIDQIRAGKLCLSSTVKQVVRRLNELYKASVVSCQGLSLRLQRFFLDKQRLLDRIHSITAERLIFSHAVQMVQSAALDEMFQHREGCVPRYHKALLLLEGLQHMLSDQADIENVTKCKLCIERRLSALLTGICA", "procedure,_shortened": "as §1"}}}
{"smiles": "C[C@@H](Oc1cc(-c2cnn(C3CCNCC3)c2)cnc1N)c1c(Cl)ccc(F)c1Cl", "note": "[crizotinib]", "values": [{"measurement": "inhibition at 1 µM", "setting": "AAK1", "result": -14, "unit": "%"}, {"measurement": "inhibition at 1 µM", "setting": "AKT2", "result": -1, "unit": "%"}, {"measurement": "inhibition at 1 µM", "setting": "CDK10", "result": 8, "unit": "%"}, {"measurement": "inhibition at 1 µM", "setting": "CDK5", "result": 1, "unit": "%"}, {"measurement": "inhibition at 1 µM", "setting": "CSNK1A1L", "result": -6, "unit": "%"}, {"measurement": "inhibition at 1 µM", "setting": "FGFR3", "result": 14, "unit": "%"}, {"measurement": "inhibition at 1 µM", "setting": "ITK", "result": -1, "unit": "%"}, {"measurement": "inhibition at 1 µM", "setting": "MAP3K10", "result": -1, "unit": "%"}, {"measurement": "inhibition at 1 µM", "setting": "MAP3K4", "result": -1, "unit": "%"}, {"measurement": "inhibition at 1 µM", "setting": "MAP3K9", "result": -1, "unit": "%"}, {"measurement": "inhibition at 1 µM", "setting": "MARK2", "result": 4, "unit": "%"}, {"measurement": "inhibition at 1 µM", "setting": "MAST4", "result": 6, "unit": "%"}, {"measurement": "inhibition at 1 µM", "setting": "MKNK2", "result": 1, "unit": "%"}, {"measurement": "inhibition at 1 µM", "setting": "MYLK2", "result": -16, "unit": "%"}, {"measurement": "inhibition at 1 µM", "setting": "PHKG1", "result": -3, "unit": "%"}, {"measurement": "inhibition at 1 µM", "setting": "STK3", "result": 1, "unit": "%"}, {"measurement": "inhibition at 1 µM", "setting": "TLK1", "result": -5, "unit": "%"}, {"measurement": "inhibition at 1 µM", "setting": "ULK1", "result": -1, "unit": "%"}]}
